What was measured:
L. lactis HP = assay: Spot on lawn assay; format: cell-based, Lactococcus lactis HP; set-up: key: +, clear halo of growth inhibition; ++: multiple +, increased activity as assessed visually by the increased diameter of the inhibition zone; +++: multiple +, increased activity as assessed visually by the increased diameter of the inhibition zone; ++++: multiple +, increased activity as assessed visually by the increased diameter of the inhibition zone; +++++: multiple +, increased activity as assessed visually by the increased diameter of the inhibition zone; -, no inhibition; settings: indicator L. lactis HP
Procedure: (§1) Antimicrobial activity of isolate MMA7 against the indicator strains was initially assessed with a deferred antagonism assay as described by Phelan et al. (2012). Subsequent testing of supernatants, crude extracts and purified compounds was carried out with a well and/or a spot on lawn assays. Essentially, 5 µl of samples were spotted onto 20 ml agar plates seeded with the indicator strain to a final OD600 of 0.015, or 30 µl aliquots were applied to a 5 mm well made on identical plates.

L. monocytogenes [1] = assay: Mode of action: growth of the indicator in 96 well plates (optical density, cfu); format: cell-based, Listeria monocytogenes EGDe
Procedure: Initially 100 µl aliquots of a two-fold serial dilution of the MB 12h cultures CFS, ASCE and the purified peptide (approx. 150 µg ml^-1), were applied to individual wells on a 96 flat bottom multiple well plate (Sarstedt). An overnight culture of the indicator strain was diluted to an OD595 of 0.05 and 100 µl were applied to each of the wells containing the bioactive peptide. The plate was incubated at 37 °C, with agitation (200 rpm) and the optical density (595 nm) was monitored hourly. Wells where the indicator was added to water only were used as negative controls. Subsequently, 100 µl of indicator overnight cultures diluted to an OD595 of 0.05 were applied to individual wells on a 96 well plate and allowed to grow to an OD595 of 0.5-0.6. 100 µl of a two-fold serial dilutions of the CFS, the respective ASCE and purified peptide, or water, were then applied to the different wells and growth continued to be monitored hourly. At the different time points samples were taken and the number of cfu determined by plating dilutions onto appropriate agar plates.

L. monocytogenes [2] = assay: Activity at different pH values, spot on lawn assay
[3] = tested on: protease mixture from Streptomyces griseus; assay: Susceptibility to proteolytic enzymes, bioactivity by spot on lawn assay; settings: Streptomyces griseus protease 1 mg ml^-1, 37 °C, 1 h; indicator L. monocytogenes
C. perfringens = format: cell-based, Clostridium perfringens NCDO 1799; set-up: key: +, clear halo of growth inhibition; ++: multiple +, increased activity as assessed visually by the increased diameter of the inhibition zone; +++: multiple +, increased activity as assessed visually by the increased diameter of the inhibition zone; ++++: multiple +, increased activity as assessed visually by the increased diameter of the inhibition zone; +++++: multiple +, increased activity as assessed visually by the increased diameter of the inhibition zone; -, no inhibition; settings: indicator C. perfringens
B. cereus = assay: Spot on lawn assay; format: cell-based, Bacillus cereus NCIMB 9373; set-up: key: +, clear halo of growth inhibition; ++: multiple +, increased activity as assessed visually by the increased diameter of the inhibition zone; +++: multiple +, increased activity as assessed visually by the increased diameter of the inhibition zone; ++++: multiple +, increased activity as assessed visually by the increased diameter of the inhibition zone; +++++: multiple +, increased activity as assessed visually by the increased diameter of the inhibition zone; -, no inhibition; settings: indicator B. cereus
Procedure: as §1

proteinase K = proteinase K (Parengyodontium album, UniProt P06873); assay: Susceptibility to proteolytic enzymes, bioactivity by spot on lawn assay; settings: proteinase K 1 mg ml^-1, 37 °C, 1 h; indicator L. monocytogenes
VRE = assay: Spot on lawn assay; format: cell-based, VRE EC725; set-up: key: +, clear halo of growth inhibition; ++: multiple +, increased activity as assessed visually by the increased diameter of the inhibition zone; +++: multiple +, increased activity as assessed visually by the increased diameter of the inhibition zone; ++++: multiple +, increased activity as assessed visually by the increased diameter of the inhibition zone; +++++: multiple +, increased activity as assessed visually by the increased diameter of the inhibition zone; -, no inhibition; settings: indicator VRE
L. monocytogenes [4] = assay: Spot on lawn assay; format: cell-based, Listeria monocytogenes EGDe; set-up: key: +, clear halo of growth inhibition; ++: multiple +, increased activity as assessed visually by the increased diameter of the inhibition zone; +++: multiple +, increased activity as assessed visually by the increased diameter of the inhibition zone; ++++: multiple +, increased activity as assessed visually by the increased diameter of the inhibition zone; +++++: multiple +, increased activity as assessed visually by the increased diameter of the inhibition zone; -, no inhibition; settings: indicator L. monocytogenes
Procedure: as §1

L. innocua = assay: Spot on lawn assay; format: cell-based, Listeria innocua DPC 3567; set-up: key: +, clear halo of growth inhibition; ++: multiple +, increased activity as assessed visually by the increased diameter of the inhibition zone; +++: multiple +, increased activity as assessed visually by the increased diameter of the inhibition zone; ++++: multiple +, increased activity as assessed visually by the increased diameter of the inhibition zone; +++++: multiple +, increased activity as assessed visually by the increased diameter of the inhibition zone; -, no inhibition; settings: indicator L. innocua
Procedure: as §1

[5] = tested on: L. monocytogenes and B. cereus; assay: Storage stability, bioactivity by spot on lawn assay; format: physicochemical
Source text: Untreated samples were used as controls.

L. monocytogenes [6] = assay: Thermal stability, bioactivity by spot on lawn assay
C. difficile = assay: Spot on lawn assay; format: cell-based, Clostridium difficile 001; set-up: key: +, clear halo of growth inhibition; ++: multiple +, increased activity as assessed visually by the increased diameter of the inhibition zone; +++: multiple +, increased activity as assessed visually by the increased diameter of the inhibition zone; ++++: multiple +, increased activity as assessed visually by the increased diameter of the inhibition zone; +++++: multiple +, increased activity as assessed visually by the increased diameter of the inhibition zone; -, no inhibition; settings: indicator C. difficile
Procedure: as §1

proteinase K, sequence (P06873 106-384): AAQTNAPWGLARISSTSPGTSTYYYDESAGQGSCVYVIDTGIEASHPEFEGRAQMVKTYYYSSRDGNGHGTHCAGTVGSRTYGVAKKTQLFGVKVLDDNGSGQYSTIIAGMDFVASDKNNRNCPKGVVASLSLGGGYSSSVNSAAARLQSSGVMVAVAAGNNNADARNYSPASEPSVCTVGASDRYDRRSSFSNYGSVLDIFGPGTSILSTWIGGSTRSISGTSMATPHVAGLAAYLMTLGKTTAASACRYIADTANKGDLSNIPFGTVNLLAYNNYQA

## C=C1NC(=O)[C@@H]2CSC[C@@H](NC(=O)[C@@H]3CS[C@@H](C)[C@H]4NC(=O)[C@H](Cc5ccccc5)NC(=O)[C@H](NC(=O)[C@H](CCCNC(=N)N)NC(=O)[C@@H]5CSC[C@@H](NC(=O)[C@H](CCC(N)=O)NC(=O)[C@@H](NC(=O)[C@@H](NC(=O)/C(=C/C)NC(=O)[C@H](CCCCN)NC(=O)CNC(=O)[C@@H](NC(=O)/C(=C/C)NC(=O)[C@H](C)NC(=O)[C@H](Cc6c[nH]c7ccccc67)NC(=O)C(=O)CC)[C@@H](C)CC)[C@@H](C)CC)C(C)C)C(=O)N[C@@H](C(C)C)C(=O)N[C@@H](CCCCN)C(=O)N[C@@H](CCCCN)C(=O)N5)[C@H](C)SC[C@H](NC4=O)C(=O)NCC(=O)N3)C(=O)N[C@@H](CC(C)C)C(=O)NCC(=O)N[C@H](CSC[C@@H](C(=O)N[C@@H](CC(N)=O)C(=O)O)NC(=O)[C@H](CC(N)=O)NC1=O)C(=O)N2 [Subtilomycin]
L. lactis HP
  Antimicrobial activity, spot on lawn assay: +
L. monocytogenes [1]; L. monocytogenes
  Nature of the inhibitory activity (mode of action): bacteriolytic action
L. monocytogenes [1]; L. monocytogenes grown in presence of sample from the beginning of growth (T0), samples from 12 h MB cultures
  Effect on growth of the indicator: completely abolish growth
L. monocytogenes [2]; pH 9, 1 h at room temperature
  Activity at different pH: reduction in activity
L. monocytogenes [2]; pH range 2 to 8, 1 h at room temperature
  Activity at different pH: fully active
L. monocytogenes [2]; pH values higher than 9 (up to 11)
  Activity at different pH: no activity
[3]
  Antimicrobial activity after proteolytic treatment: complete loss of activity
C. perfringens
  Antimicrobial activity, spot on lawn assay: -
B. cereus
  Antimicrobial activity, spot on lawn assay: ++
Proteinase K
  Antimicrobial activity after proteolytic treatment: None of the treatments resulted in a decrease of activity
VRE
  Antimicrobial activity, spot on lawn assay: -
L. monocytogenes [4]
  Antimicrobial activity, spot on lawn assay: ++
L. innocua
  Antimicrobial activity, spot on lawn assay: ++
[5]; after 5 months storage at -20 °C and -80 °C
  Activity after storage: No activity
[5]; stored at 4 °C and room temperature, after two weeks
  Activity after storage: lost their activity
[5]; stored at -20 °C and -80 °C, spot on lawn against L. monocytogenes and B. cereus
  Period of storage with retained activity: up to 4 months
L. monocytogenes [6]; 100 °C for 1 hr, L. monocytogenes
  Activity after heat treatment: no activity
L. monocytogenes [6]; wide range of temperatures, including 100 °C for 30 minutes
  Activity after heat treatment: stable
C. difficile
  Antimicrobial activity, spot on lawn assay: -

From patent EP2787003A1, “Antimicrobial peptide produced by marine sponge-derived Bacillus subtilis” (priority 2013, dated 2014)
